According to patent US9504671B2, “Pharmaceutical compositions of spiro-oxindole compound for topical administration and their use as therapeutic agents” (Xenon Pharmaceuticals Inc., priority 2010, dated 2016):

Tested on: STZ-induced neuropathic pain model
Assay: STZ model of diabetic neuropathy, von Frey
Assay type: in vivo, male Sprague-Dawley rats
Settings: 4% (w/w) topical composition, 50 mg on left foot, 30 minutes post-dosing, p<0.05
Description: This study evaluates the efficacy of a pharmaceutical composition of the invention in the STZ-induced neuropathic pain model in male Sprague-Dawley rats, following acute dosing, as compared with a 5% (w/v) topical Lidocaine (Xylocaine®) and a 1.16% (w/v) topical Diclofenac (Voltaren®). A rodent model of painful peripheral diabetic neuropathy (PDN) that mimics human condition was created by inducing a diabetic state in the rat through the ablation of the insulin producing pancreatic beta cells. A single streptozotocin (STZ) injection destroys beta cells in rats and produces a diabetic state that over time progresses to painful Peripheral Diabetic Neuropathy (PDN).
Streptozotocin (STZ) was dissolved in citrate buffer (20 mM, pH 4.5) and administered at a dose of 60 mg/Kg, intraperitoneal, to induce pancreatic beta-cell death. Blood glucose level was measured once a week following injection, using the AccuSoft Blood Glucose Monitoring System. […] Hyperalgesia and allodynia, which are signs of diabetic neuropathic pain, were monitored using the von Frey test as described below. Von Frey measurements were recorded from both left and right paws. Only those with significant hyperalgesia as determined by reduced threshold, measured in grams, of paw withdrawal to the von Frey filament were enrolled in the study. […] During this time their health status was closely monitored.
The animals were randomly divided into 4 test groups (n=7 animals/group) including a vehicle control, a 5% (w/v) Lidocaine (Xylocaine®), a 1.16% (w/v) Diclofenac (Voltaren®), and a pharmaceutical composition with 4% (w/w) COMPOUND A. After baseline measurement, 50 mg of the test composition was applied on the entire left foot. […] The paw withdrawal thresholds of animals from mechanical tactile stimuli were measured using the Electrovonfrey anesthesiometer (Model 2290, IITC Life Science, Woodland Hills, Calif.). […] The force (g) required to elicit a crisp withdrawal response was recorded before dosing as a baseline measurement, and at 30 minutes post-dosing. […]

O=C1N(Cc2ccc(C(F)(F)F)o2)c2ccccc2[C@]12COc1cc3c(cc12)OCO3 [COMPOUND A, (S)-1′-{[5-(trifluoromethyl)furan-2-yl]methyl}spiro[furo[2,3-f][1,3]benzodioxole-7,3′-indol]-2′(1′H)-one]
paw withdrawal threshold of treated paw, percent mean change from baseline (CFB): 44.9%
